Laboratory results reported in paper PMC6979384, “Characterization of the plant homeodomain (PHD) reader family for their histone tail interactions” (Epigenetics & Chromatin, 2020).

Experiments:
Assay in all cases: Histone peptide microarray
Type in all cases: binding, human
Details in all cases: sheet "Array Heatmap"; GST-tagged reader; histone peptide array, total n = 4
[1] = test system: AIRE (PP)
Method in brief: (§1)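 Binding of recombinant GST-fused PHD readers (0.5 μM) is detected on an array of 293 histone peptides, modified singly or in combination. An optimized array protocol is followed, and each intensity is the average of quadruplicate measurements with standard deviation.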

[2] = test system: BAZ2B
Method in brief: as §1

[3] = test system: ING4
Method in brief: as §1

[4] = test system: KDM5A (1)
Method in brief: as §1

[5] = test system: ING5
Method in brief: as §1

[6] = test system: CHD4 (PPCC)
Method in brief: as §1

[7] = test system: CHD5 (PCC)
Method in brief: as §1

[8] = test system: SP140L
Method in brief: as §1

[9] = test system: KDM5B (3)
Method in brief: as §1

[10] = test system: ING1
Method in brief: as §1

[11] = test system: ING2
Method in brief: as §1

[12] = test system: CHD5 (PPCC)
Method in brief: as §1

[13] = test system: MLL5
Method in brief: as §1

[14] = test system: KDM7A
Method in brief: as §1

[15] = test system: TAF3
Method in brief: as §1

[16] = test system: RAG2
Method in brief: as §1

[17] = test system: KDM5B (1)
Method in brief: as §1

[18] = test system: PHRF1 (RP)
Method in brief: as §1

[19] = test system: MORC3 (CW)
Method in brief: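 Binding read as mean relative signal from 4 replicates; microarray held 293 synthetic histone peptides with single or combinatorial PTMs. Each GST-tagged PHD reader was applied at 0.5 μM using the optimized Petell protocol.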

[20] = test system: DIDO1
Method in brief: as §1

[21] = test system: ING3
Method in brief: as §1

[22] = test system: BPTF (PB)
Method in brief: as §1

[23] = test system: PHF8
Method in brief: as §1

[24] = test system: KDM4C (TTP)
Method in brief: as §1

[25] = test system: PHF13
Method in brief: as §1

[26] = test system: PHF23
Method in brief: as §1

[27] = test system: TRIM66 (PB)
Method in brief: as §1

[28] = test system: DPF2 (PPC2W2)
Method in brief: as §1

[29] = test system: PHF21A
Method in brief: as §1

[30] = test system: PHF2
Method in brief: as §1

[31] = test system: KDM5A (3)
Method in brief: as §1

Substance | Array Heatmap signal, AIRE (PP) [1] | Array Heatmap signal, BAZ2B [2] | Array Heatmap signal, ING4 [3] | Array Heatmap signal, KDM5A (1) [4] | Array Heatmap signal, ING5 [5] | Array Heatmap signal, CHD4 (PPCC) [6] | Array Heatmap signal, CHD5 (PCC) [7] | Array Heatmap signal, SP140L [8] | Array Heatmap signal, KDM5B (3) [9] | Array Heatmap signal, ING1 [10] | Array Heatmap signal, ING2 [11] | Array Heatmap signal, CHD5 (PPCC) [12] | Array Heatmap signal, MLL5 [13] | Array Heatmap signal, KDM7A [14] | Array Heatmap signal, TAF3 [15] | Array Heatmap signal, RAG2 [16] | Array Heatmap signal, KDM5B (1) [17] | Array Heatmap signal, PHRF1 (RP) [18] | Array Heatmap signal, MORC3 (CW) [19] | Array Heatmap signal, DIDO1 [20] | other results
H3R8me1: H3 1-20 [Peptide H3R8me1] | 0.5084 | 0.4447 | 0.4481 | 0.4661 | 0.3558 | 0.56 | 0.7411 | 0.3587 | 0.4843 | 0.4918 | 0.6007 | 0.5449 | 0.5181 | 0.3359 | 0.2594 | 0.2447 | 0.6779 | 0.6379 | 0.4492 | 0.6306 | Array Heatmap signal, ING3 [21]: 0.4554; Array Heatmap signal, BPTF (PB) [22]: 0.34; Array Heatmap signal, PHF8 [23]: 0.3354; Array Heatmap signal, KDM4C (TTP) [24]: 0.4945; Array Heatmap signal, PHF13 [25]: 0.597; Array Heatmap signal, PHF23 [26]: 0.5397; Array Heatmap signal, TRIM66 (PB) [27]: 0.5513; Array Heatmap signal, DPF2 (PPC2W2) [28]: 0.6736; Array Heatmap signal, PHF21A [29]: 0.4425; Array Heatmap signal, PHF2 [30]: 0.4833; Array Heatmap signal, KDM5A (3) [31]: 0.5111
H3R8me2a + K9me3: H3 1-20 | 0.4401 | 0.4376 | 0.4504 | 0.4583 | 0.3474 | 0.5686 | 0.7117 | 0.3611 | 0.5093 | 0.57 | 0.595 | 0.5418 | 0.5407 | 0.3302 | 0.2595 | 0.2449 | 0.64 | 0.6376 | 0.4005 | 0.7155 | Array Heatmap signal, ING3 [21]: 0.4657; Array Heatmap signal, BPTF (PB) [22]: 0.3424; Array Heatmap signal, PHF8 [23]: 0.3554; Array Heatmap signal, KDM4C (TTP) [24]: 0.4618; Array Heatmap signal, PHF13 [25]: 0.5734; Array Heatmap signal, PHF23 [26]: 0.5164; Array Heatmap signal, TRIM66 (PB) [27]: 0.5712; Array Heatmap signal, DPF2 (PPC2W2) [28]: 0.714; Array Heatmap signal, PHF21A [29]: 0.4463; Array Heatmap signal, PHF2 [30]: 0.5753; Array Heatmap signal, KDM5A (3) [31]: 0.5315
H3R8me2a: H3 1-20 [Peptide H3R8me2a] | 0.5572 | 0.437 | 0.4314 | 0.4494 | 0.3481 | 0.5373 | 0.7162 | 0.3504 | 0.4831 | 0.4976 | 0.6044 | 0.5334 | 0.5074 | 0.3419 | 0.2542 | 0.2386 | 0.6786 | 0.6824 | 0.4558 | 0.6465 | Array Heatmap signal, ING3 [21]: 0.4474; Array Heatmap signal, BPTF (PB) [22]: 0.3288; Array Heatmap signal, PHF8 [23]: 0.3345; Array Heatmap signal, KDM4C (TTP) [24]: 0.4962; Array Heatmap signal, PHF13 [25]: 0.5768; Array Heatmap signal, PHF23 [26]: 0.5221; Array Heatmap signal, TRIM66 (PB) [27]: 0.5681; Array Heatmap signal, DPF2 (PPC2W2) [28]: 0.6583; Array Heatmap signal, PHF21A [29]: 0.4488; Array Heatmap signal, PHF2 [30]: 0.4368; Array Heatmap signal, KDM5A (3) [31]: 0.6079
